Test results as given in patent US11897875B2, “Deuterated Alpha5 subunit-selective negative allosteric modulators of gamma-aminobutyric acid type a receptors as fast acting treatment for depression and mood disorders” (UNIVERSITY OF MARYLAND, BALTIMORE, priority 2017, dated 2024).

Assays:
[1] = metabolic stability in human hepatocytes in vitro; assay type: in vitro ADME; details: human liver hepatocytes; human hepatocytes in vitro
Source text: (§1) Table 1, below, presents data regarding the half-life of […] in rat and human liver hepatocytes, in vitro, showing an increase in half-life for the deuterated compounds. Stability improved more in human hepatocytes compared to rat hepatocytes, with variation between the hepatocyte studies. […] Longer half-life also allows less frequent dosing. […] Deuteration preferably is located at the site of metabolism, since installing deuterium atoms at the site of metabolism more readily increases the half-life of the compound.

[2] = test system: human liver hepatocytes; assay: metabolic stability in human hepatocytes in vitro; assay type: in vitro ADME
Source text: as §1

[3] = test system: rat liver hepatocytes; assay: metabolic stability in rat hepatocytes in vitro; assay type: in vitro ADME; details: 3 hours
Source text: as §1

[4] = metabolic stability in rat hepatocytes in vitro; assay type: in vitro ADME; details: rat liver hepatocytes
Source text: as §1

[5] = as a nootropic; cited from earlier work
[6] = test system: naïve rats and rats subjected to 14 days of chronic multimodal stress; assay: forced swim test; assay type: in vivo, rat; details: for time the animals spent immobile / latency until the animals ceased to struggle and become immobile: NCGC-43 3 mg/kg or ketamine 20 mg/kg, 24 hours after injection; for time the animals spent immobile: vs stressed animals given vehicle (FIG. 6A); for latency until the animals ceased to struggle and become immobile: vs stressed animals given vehicle (FIG. 6B)
Source text: NCGC-43 and ketamine both exert an antidepressant-like response in this test. […] See also FIG. 6C and FIG. 6D.

[7] = test system: rats subjected to chronic multimodal stress; assay: social interaction test in rats after chronic multimodal stress; assay type: in vivo, rat; details: single injection, NCGC-43 3 mg/kg or ketamine 20 mg/kg; 24 hours after injection
Protocol: […] In the social interaction test, rats were given a choice between spending time in a chamber with a novel caged juvenile rat and a chamber with an empty cage before commencing stress (baseline), immediately after 14 days of chronic multimodal stress, and 24 hours after an injection of NCGC-43 (3 mg/kg, gray), ketamine (20 mg/kg, orange), or vehicle (DMSO solution, blue). Social interaction computed as percent time spent with the novel animal. A control group received neither stress nor drug (yellow).

[8] = test system: rats subjected to chronic multimodal stress; assay: sucrose preference test in rats under chronic multimodal stress; assay type: in vivo, rat; details: for sucrose preference (sucrose solution consumed as percentage of total): single injection, NCGC-43 3 mg/kg or ketamine 20 mg/kg, 24 hours, 7 days, 14 days after injection, stress continued
Protocol: In the sucrose preference test, rats were given an overnight two bottle choice task (in which the sucrose solution consumption is shown as a percentage of the total solution consumed) before commencing stress (baseline), immediately after 14 days of chronic multimodal stress, and 24 hours, 7 days, and 14 days after an injection of NCGC-43 (3 mg/kg, gray), ketamine (20 mg/kg, orange), or vehicle (DMSO solution, blue), all while continuing with daily chronic multimodal stress. A control group received neither stress nor drug (yellow).

[9] = test system: rats subjected to chronic multimodal stress; assay: elevated plus maze; assay type: in vivo, rat; details: NCGC-43 3 mg/kg or ketamine 20 mg/kg; 24 hours after injection
Protocol: In the elevated plus maze, rats were given a choice between spending time in one of two arms of an elevated cross-shaped maze (one arm closed and the other arm open), immediately after 14 days of chronic multimodal stress, and 24 hours after an injection of NCGC-43 (3 mg/kg) or ketamine (20 mg/kg). A control group was unstressed and received a vehicle injection (DMSO).

[10] = test system: rats subjected to chronic multimodal stress; assay: open field test; assay type: in vivo, rat; details: 3 mg/kg
Protocol: FIG. 4A is a schematic of the open field test. […] Behavioral measurements were made before commencing stress (baseline), immediately after 14 days of chronic multimodal stress, and 24 hours after an injection of NCGC-43 (3 mg/kg) or vehicle (DMSO solution).

Row | Compound | half-life [1] | Percentage Remaining at 3 Hours ([2]; human hepatocytes in vitro) | Percentage Remaining at 3 Hours [3] | half-life [4] | efficacy in phase II clinical trials [5] | safety in phase II clinical trials [5] | time the animals spent immobile [6] | latency until the animals ceased to struggle and become immobile [6] | social interaction (percent time spent with the novel animal) [7] | sucrose preference (sucrose solution consumed as percentage of total) [8] | percent of time spent in the closed arm [9] | time course of effect (responses at 1 hour and 24 hours) ([6]; 3 mg/kg, 1 hour vs 24 hours after injection) | latency to immobility, dose-response ([6]; intraperitoneal, increasing doses, 1 or 24 hours after injection (FIG. 7)) | Half-life (hours) ([2]; human hepatocytes in vitro) | metabolic stability compared with non-deuterated RG-1662 ([2]; rat and human hepatocytes in vitro, improved more in human) | overall locomotor activity ([10]; 24 hours after injection (FIG. 4B)) | time spent in the corners and sides ([10]; 24 hours after injection (FIG. 4C)) | ratio of time spent in the center of the chamber to time spent in the corners/sides ([10]; 24 hours after injection (FIG. 4D)) | latency before the animals first entered the center of the chamber ([10]; 24 hours after injection (FIG. 4E)) | antidepressant effects compared with ketamine ([8]; NCGC-43 3 mg/kg vs ketamine 20 mg/kg)
1 | Cc1onc(-c2ccc(F)cc2)c1COc1ccc(C(=O)N2CCS(=O)(=O)CC2)cn1 [RG-1662, (1,1-Dioxidothiomorpholino)(6-((3-(4-fluorophenyl)-5-methylisoxazol-4-yl)methoxy)pyridin-3-yl)methanone, reference compound] | 720 min | 83.7% | 3.3% | 36 min | not efficacious | safe | – | – | – | – | – | – | – | – | – | – | – | – | – | –
2 | CNC1(c2ccccc2Cl)CCCCC1=O (stereo not drawn) [ketamine, reference compound] | – | – | – | – | – | – | a decrease in the time the animals spent immobile | an increase in the latency | restored their preference for interacting with a novel animal | restored sucrose preference in a rapid (within 24 hours) and persistent (up to 14 days) manner | increased the percent of time the rat spent in the closed arm | – | – | – | – | – | – | – | – | –
3 | [2H]C([2H])([2H])c1onc(-c2ccc(F)cc2)c1COc1ccc(C(=O)N2CCS(=O)(=O)CC2)cn1 [NCGC-43, (1,1-dioxidothiomorpholino)(6-((3-(4-fluorophenyl)-5-(methyl-d3)isoxazol-4-yl)methoxy)pyridin-3-yl)methanone] | – | 100% | 3.9% | 38.4 min | – | – | a decrease in the time the animals spent immobile | an increase in the latency | restored their preference for interacting with a novel animal | restored sucrose preference in a rapid (within 24 hours) and persistent (up to 14 days) manner | – | rapid and persistent effects similar to those described previously for ketamine | significant efficacy at 1 and 3 mg/kg | Stable | more metabolically stable | neither chronic stress nor injection of NCGC-43 or vehicle had any significant effects | neither chronic stress nor injection of NCGC-43 or vehicle had any significant effects | neither chronic stress nor injection of NCGC-43 or vehicle had any significant effects | mildly decreased the latency | comparable to ketamine
